# Columns and labels:
# Experiment in all cases: relative viability (nuclei count vs DMSO), 5 days (fraction); higher = more cells survive
# [1] = compound: COC1=CC=C(C=C1)CN2C=CC3=C2C=C(C=C3)C(=O)NO + Nc1ncn([C@H]2C[C@H](O)[C@@H](CO)O2)c(=O)n1 [Decitabine] (partner 2 µM)
# Summary of the method: (§1)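 Relative viability is defined as nuclei in treated wells over nuclei in vehicle wells. Duplicate plates were run and medians reported. Lung cancer cell lines in 1536-well plates were dosed by pin tool one day after seeding, with one drug or with a fixed anchor-drug dose plus five library-drug doses (not always all listed) in √10 steps, and nuclei were counted after 5 days.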
# [2] = compound: COC1=CC=C(C=C1)CN2C=CC3=C2C=C(C=C3)C(=O)NO + O=C(CCCCCCC(=O)Nc1ccccc1)NO [Vorinostat] (partner 1 µM)
# Summary of the method: as §1
# [3] = compound: C[C@]1(c2nc3c(C(N)=O)cccc3[nH]2)CCCN1 [Veliparib] + CC(=O)c1c(C)c2cnc(Nc3ccc(N4CCNCC4)cn3)nc2n(C2CCCC2)c1=O [Palbociclib] (partner 0.5 µM)
# Summary of the method: as §1
# [4] = compound: C[C@]1(c2nc3c(C(N)=O)cccc3[nH]2)CCCN1 [Veliparib] + COc1cccc2cc(-c3nc([C@H]4CC[C@H](C(=O)O)CC4)n4ncnc(N)c34)[nH]c12 [OSI-027] (partner 0.5 µM)
# Summary of the method: as §1
# [5] = compound: C[C@]1(c2nc3c(C(N)=O)cccc3[nH]2)CCCN1 [Veliparib] + O=C(CCCCCCC(=O)Nc1ccccc1)NO [Vorinostat] (partner 1 µM)
# Summary of the method: as §1
cell line,measurement,setting,value
SW 1573,relative viability,[1]; first compound 0.253 µM,0.525
same,relative viability,[1]; first compound 0.8 µM,0.59
same,relative viability,[1]; first compound 2.53 µM,0.471
same,relative viability,[1]; first compound 8 µM,0.258
same,relative viability,[2]; first compound 0.253 µM,0.76
same,relative viability,[2]; first compound 0.8 µM,0.804
same,relative viability,[2]; first compound 2.53 µM,0.818
same,relative viability,[2]; first compound 8 µM,0.622
same,relative viability,[3]; first compound 0.06325 µM,0.337
same,relative viability,[3]; first compound 0.2 µM,0.431
same,relative viability,[3]; first compound 0.6325 µM,0.382
same,relative viability,[3]; first compound 2 µM,0.445
same,relative viability,[4]; first compound 0.06325 µM,0.558
same,relative viability,[4]; first compound 0.2 µM,0.597
same,relative viability,[4]; first compound 0.6325 µM,0.521
same,relative viability,[4]; first compound 2 µM,0.675
same,relative viability,[5]; first compound 0.06325 µM,0.596
same,relative viability,[5]; first compound 0.2 µM,0.67
same,relative viability,[5]; first compound 0.6325 µM,0.495
same,relative viability,[5]; first compound 2 µM,0.869

# — the supplement of paper PMC10307832
